Experimental data published in the supplement of paper PMC11451515.

Columns and labels:
Details in all cases: 48 h
[1] = tested on: SEM cells; assay: AUC of viability dose-response curve (% viability x log10 dose units); higher = less sensitive
Procedure, shortened: (§1)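 Viability of medium-adapted leukemia cells was measured by CellTiter-Glo One luminescence after 48 h at 37°C with library compounds in DMSO. Doses were 11 threefold steps from 47 μM to 0.79 nM, in 1536-well plates at 500 or 1000 cells/well. Signals were normalised per plate to DMSO and cell-free wells and fitted with a four-parameter log-logistic model on log10 dose. Area under the curve was integrated by trapezoidal rule, with curves exceeding full viability scaled and failed quality-control curves removed.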

[2] = tested on: P12-Ichikawa; assay: as above
Procedure, shortened: as §1

[3] = tested on: NOMO1; assay: as above
Procedure, shortened: as §1

[4] = tested on: SEM cells; assay: cell viability relative to DMSO control; higher = less cytotoxic
Procedure, shortened: (§2)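 In 1536-well plates, 5 μl of leukemia cells were seeded per well: 500 cells/well for NOMO1 or SEM and 1000 cells/well for P12-Ichikawa. Each line had first been adapted for at least four passages in each medium. Library compounds in DMSO were pin-dosed at 11 threefold concentrations between 47 μM and 0.79 nM, and CellTiter-Glo One luminescence was read after 48 h at 37°C. Viability is a per-plate percentage relative to DMSO wells, with cell-free wells as background.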

[5] = tested on: P12-Ichikawa; assay: as above
Procedure, shortened: as §2

[6] = tested on: NOMO1; assay: as above
Procedure, shortened: as §2

CN(C)CC/C=C1/c2ccccc2COc2ccc(CC(=O)O)cc21
AUC of viability dose-response curve
Details	[1]	[2]	[3]
HPLM + 10% dialyzed FBS	448	462	466
RPMI 5 mM glucose + 10% FBS	454	467	437
RPMI 5 mM glucose + 10% dialyzed FBS	449	461	453

cell viability [%]
Details	[4]	[5]	[6]
HPLM + 10% dialyzed FBS, 0.000781 µM	85.4	118	–
HPLM + 10% dialyzed FBS, 0.00234 µM	81.8	112	–
HPLM + 10% dialyzed FBS, 0.00702 µM	108	116	–
HPLM + 10% dialyzed FBS, 0.0211 µM	120	120	–
HPLM + 10% dialyzed FBS, 0.0632 µM	113	125	–
HPLM + 10% dialyzed FBS, 0.19 µM	130	125	–
HPLM + 10% dialyzed FBS, 0.569 µM	132	122	–
HPLM + 10% dialyzed FBS, 1.71 µM	124	126	–
HPLM + 10% dialyzed FBS, 5.12 µM	101	129	–
HPLM + 10% dialyzed FBS, 15.4 µM	141	125	–
HPLM + 10% dialyzed FBS, 46.1 µM	126	131	–
RPMI 5 mM glucose + 10% FBS, 0.000781 µM	123	–	112
RPMI 5 mM glucose + 10% FBS, 0.00234 µM	106	–	115
RPMI 5 mM glucose + 10% FBS, 0.00702 µM	124	–	120
RPMI 5 mM glucose + 10% FBS, 0.0211 µM	127	–	128
RPMI 5 mM glucose + 10% FBS, 0.0632 µM	136	–	153
RPMI 5 mM glucose + 10% FBS, 0.19 µM	132	–	131
RPMI 5 mM glucose + 10% FBS, 0.569 µM	143	–	148
RPMI 5 mM glucose + 10% FBS, 1.71 µM	144	–	166
RPMI 5 mM glucose + 10% FBS, 5.12 µM	121	–	153
RPMI 5 mM glucose + 10% FBS, 15.4 µM	148	–	149
RPMI 5 mM glucose + 10% FBS, 46.1 µM	142	–	147
RPMI 5 mM glucose + 10% dialyzed FBS, 0.000781 µM	–	122	–
RPMI 5 mM glucose + 10% dialyzed FBS, 0.00234 µM	–	114	–
RPMI 5 mM glucose + 10% dialyzed FBS, 0.00702 µM	–	122	–
RPMI 5 mM glucose + 10% dialyzed FBS, 0.0211 µM	–	141	–
RPMI 5 mM glucose + 10% dialyzed FBS, 0.0632 µM	–	140	–
RPMI 5 mM glucose + 10% dialyzed FBS, 0.19 µM	–	136	–
RPMI 5 mM glucose + 10% dialyzed FBS, 0.569 µM	–	146	–
RPMI 5 mM glucose + 10% dialyzed FBS, 1.71 µM	–	135	–
RPMI 5 mM glucose + 10% dialyzed FBS, 5.12 µM	–	134	–
RPMI 5 mM glucose + 10% dialyzed FBS, 15.4 µM	–	136	–
RPMI 5 mM glucose + 10% dialyzed FBS, 46.1 µM	–	138	–

CC(=O)[C@H]1CC[C@H]2[C@@H]3CCC4=CC(=O)CC[C@]4(C)[C@H]3CC[C@]12C
AUC of viability dose-response curve
Details	[1]	[2]	[3]
HPLM + 10% dialyzed FBS	432	465	454
RPMI 5 mM glucose + 10% FBS	470	455	447
RPMI 5 mM glucose + 10% dialyzed FBS	456	465	433

cell viability [%]
Details	[4]	[5]	[6]
HPLM + 10% dialyzed FBS, 0.000781 µM	69	106	110
HPLM + 10% dialyzed FBS, 0.00234 µM	83.5	114	122
HPLM + 10% dialyzed FBS, 0.00702 µM	89.4	120	140
HPLM + 10% dialyzed FBS, 0.0211 µM	92.3	112	136
HPLM + 10% dialyzed FBS, 0.0632 µM	82.1	118	127
HPLM + 10% dialyzed FBS, 0.19 µM	102	115	120
HPLM + 10% dialyzed FBS, 0.569 µM	103	125	123
HPLM + 10% dialyzed FBS, 1.71 µM	97	118	133
HPLM + 10% dialyzed FBS, 5.12 µM	88.7	109	139
HPLM + 10% dialyzed FBS, 15.4 µM	88.1	94.7	115
HPLM + 10% dialyzed FBS, 46.1 µM	92.7	110	147
RPMI 5 mM glucose + 10% FBS, 0.000781 µM	98	–	116
RPMI 5 mM glucose + 10% FBS, 0.00234 µM	96.9	–	109
RPMI 5 mM glucose + 10% FBS, 0.00702 µM	102	–	122
RPMI 5 mM glucose + 10% FBS, 0.0211 µM	113	–	120
RPMI 5 mM glucose + 10% FBS, 0.0632 µM	113	–	116
RPMI 5 mM glucose + 10% FBS, 0.19 µM	116	–	111
RPMI 5 mM glucose + 10% FBS, 0.569 µM	120	–	114
RPMI 5 mM glucose + 10% FBS, 1.71 µM	106	–	123
RPMI 5 mM glucose + 10% FBS, 5.12 µM	96.7	–	128
RPMI 5 mM glucose + 10% FBS, 15.4 µM	101	–	120
RPMI 5 mM glucose + 10% FBS, 46.1 µM	92.8	–	133
RPMI 5 mM glucose + 10% dialyzed FBS, 0.000781 µM	108	98.1	114
RPMI 5 mM glucose + 10% dialyzed FBS, 0.00234 µM	92.7	112	121
RPMI 5 mM glucose + 10% dialyzed FBS, 0.00702 µM	103	108	134
RPMI 5 mM glucose + 10% dialyzed FBS, 0.0211 µM	109	118	134
RPMI 5 mM glucose + 10% dialyzed FBS, 0.0632 µM	103	120	127
RPMI 5 mM glucose + 10% dialyzed FBS, 0.19 µM	119	125	135
RPMI 5 mM glucose + 10% dialyzed FBS, 0.569 µM	106	120	136
RPMI 5 mM glucose + 10% dialyzed FBS, 1.71 µM	117	116	141
RPMI 5 mM glucose + 10% dialyzed FBS, 5.12 µM	90.8	105	158
RPMI 5 mM glucose + 10% dialyzed FBS, 15.4 µM	81.7	91.9	140
RPMI 5 mM glucose + 10% dialyzed FBS, 46.1 µM	90.7	114	150

O=[N+]([O-])c1cnc(Sc2nnc(O)n2-c2ccc3c(c2)OCCO3)s1
AUC of viability dose-response curve
Details	[1]	[2]	[3]
HPLM + 10% dialyzed FBS	341	390	376
RPMI 5 mM glucose + 10% FBS	342	356	353
RPMI 5 mM glucose + 10% dialyzed FBS	331	337	375

cell viability [%]
Details	[4]	[5]	[6]
HPLM + 10% dialyzed FBS, 0.000781 µM	90.4	87.4	84.4
HPLM + 10% dialyzed FBS, 0.00234 µM	69.9	86.1	73.6
HPLM + 10% dialyzed FBS, 0.00702 µM	80.1	87.7	101
HPLM + 10% dialyzed FBS, 0.0211 µM	82.6	91	102
HPLM + 10% dialyzed FBS, 0.0632 µM	73.2	91.8	96.4
HPLM + 10% dialyzed FBS, 0.19 µM	86.9	93.4	92.3
HPLM + 10% dialyzed FBS, 0.569 µM	102	94.2	86.3
HPLM + 10% dialyzed FBS, 1.71 µM	84.3	97	96.1
HPLM + 10% dialyzed FBS, 5.12 µM	83.2	87.8	93.6
HPLM + 10% dialyzed FBS, 15.4 µM	2.06	45.8	6.33
HPLM + 10% dialyzed FBS, 46.1 µM	2.49	2.64	2.43
RPMI 5 mM glucose + 10% FBS, 0.000781 µM	87.5	86.5	81.7
RPMI 5 mM glucose + 10% FBS, 0.00234 µM	70.9	84.3	78.2
RPMI 5 mM glucose + 10% FBS, 0.00702 µM	87.6	88	95.3
RPMI 5 mM glucose + 10% FBS, 0.0211 µM	87.8	94.1	92
RPMI 5 mM glucose + 10% FBS, 0.0632 µM	89	87.6	85.2
RPMI 5 mM glucose + 10% FBS, 0.19 µM	88.6	92.5	86.2
RPMI 5 mM glucose + 10% FBS, 0.569 µM	100	81.5	82.8
RPMI 5 mM glucose + 10% FBS, 1.71 µM	73.1	90	92.2
RPMI 5 mM glucose + 10% FBS, 5.12 µM	71.4	81.6	84.7
RPMI 5 mM glucose + 10% FBS, 15.4 µM	2.18	3.89	2.77
RPMI 5 mM glucose + 10% FBS, 46.1 µM	2.5	1.48	2.27
RPMI 5 mM glucose + 10% dialyzed FBS, 0.000781 µM	82.7	83.6	78.9
RPMI 5 mM glucose + 10% dialyzed FBS, 0.00234 µM	67.9	78.6	96.3
RPMI 5 mM glucose + 10% dialyzed FBS, 0.00702 µM	81.6	80.5	92
RPMI 5 mM glucose + 10% dialyzed FBS, 0.0211 µM	84.1	84.1	97.1
RPMI 5 mM glucose + 10% dialyzed FBS, 0.0632 µM	77.4	87.4	92.2
RPMI 5 mM glucose + 10% dialyzed FBS, 0.19 µM	88.2	89.2	98.9
RPMI 5 mM glucose + 10% dialyzed FBS, 0.569 µM	85.1	83.6	95.3
RPMI 5 mM glucose + 10% dialyzed FBS, 1.71 µM	86.7	79.2	89.9
RPMI 5 mM glucose + 10% dialyzed FBS, 5.12 µM	77.9	79.3	83.5
RPMI 5 mM glucose + 10% dialyzed FBS, 15.4 µM	2.08	1.24	6.45
RPMI 5 mM glucose + 10% dialyzed FBS, 46.1 µM	2.84	0.948	1.89
